{
  "source": "patent US9045490B2",
  "about": "“Use of parthenolide derivatives as antileukemic and cytotoxic agents” (University of Kentucky, priority 2003, dated 2015)",
  "key": {"[1]": {"system": "hormone refractory prostate cancer cell line CWR22Rv1", "experiment": "MTS-PMS cellular proliferation assay", "format": "cell-based", "conditions": "at 5 μm, CWR22 MTS-PMS assay", "protocol": "A 96-well U-bottomed plate (Becton Dickinson Labware, Franklin Lakes, N.J.) at a concentration of 5,000 cells per 50 microliters […] of media was incubated in 5% CO2 at 37° C. for 24 hours. Varying compound concentrations in […] of media were added to the media 24 hours later. Colorimetric readings were obtained using the MTS/PMS system and an ELISA plate reader, after 48 hours of exposure to DMAPT. The readings obtained for each concentration tested were from an average of eight wells. Each experiment was expressed as a percentage of the solvent control and completed at least three times with consistent results. The results presented are an average of three experiments. The hormone refractory prostate cancer cell line CWR22Rv1 was treated with increasing concentrations of parthenolide and DMAPT. for three hours Both parthenolide and DMAPT reduced cellular proliferation by 50% at 5 μm in the CWR22 MTS-PMS assay. Cellular proliferation was also measured in the MTS-PMS assay using four lung cancer cell lines treated with parthenolide and derivatives PIPT ((11S,11,13-dihydro,13-(piperidin-1-yl)parthenolide), 4MEPT (11S,11,13-dihydro,13-(4-methylpiperidin-1-yl)parthenolide) and MAPT (11S,11,13-dihydro,13-dimethylaminoparthenolide). Parthenolide and its derivatives inhibited cellular proliferation in a dose dependent manner between 2 and 10 μM with 70% inhibition at 10 μM in A549, 50% in H460, 40% in H-23 and 40% in H522 (FIGS. 2-5)."}, "[2]": {"system": "breast cancer cell line 436", "experiment": "Clonogenic assay", "format": "cell-based", "conditions": "436 cells, 2 μm concentration (parthenolide: similar dosage ranges)"}, "NF-κB DNA binding": {"system": "NF-κB DNA binding", "experiment": "Electrophoretic mobility gel shift assay (EMSA)", "format": "cell-based", "conditions": "three hours", "protocol": "Each cancer cell line in exponential growth phase was treated with solvent control or various concentrations of parthenolide derivatives dissolved in 100% ethanol for 3 hours prior to harvesting. Cells were harvested and whole cell extracts were prepared as described previously (Nakshatri et al., Mol Cell Biol, 17: 3629-3639, 1997; Sweeney et al., Clin Cancer Res, 10: 5501-5507, 2004). Extracts were incubated with a radiolabelled NFκB probe for 30 minutes at room temperature. The oligonucleotide probe binds to the NFκB DNA binding site in the promoter region of the immunoglobulin gene. Electrophoresis and autoradioragraphy were performed as described previously (Nakshatri et al., 1997) using NFκB and SP-1 probes (Promega, Madison, Wis.). The specificity of parthenolide and derivative inhibition of NFκB DNA binding was verified by the use of the SP-1 probe as a control. Identification of the NFκB subunits binding to DNA and inhibited by DMAPT were identified by gel supershift. Constitutive NF-κB DNA binding activity was determined in the lung cancer cell lines A-549, H-23, H-522, and H-460. All four non-small lung cancer cells were treated with increasing concentrations of DMAPT for three hours, and NF-κB DNA binding was measured by electrophoretic mobility shift assay (EMSA) as described. NF-κB DNA binding activity was highest in A-549 cells, followed by H-23, H-522 and H-460 cells.\nCancer cell lines HT-1376 and UMUC-3 were treated with increasing concentrations of DMAPT for three hours. Whole cell extracts were prepared as described and DNA binding by NF-κB was analyzed by EMSA with NF-κB and OCT-1 (internal control) probes.\nThe hormone refractory prostate cancer cell line, CWR22Rv1 was treated with increasing concentrations of DMAPT for three hours. Whole cell extracts were prepared as described and DNA binding by NF-κB was analyzed by EMSA with NF-κB and SP-1 (internal control) probes."}, "[3]": {"experiment": "Preliminary toxicity study in mice", "format": "in vivo", "conditions": "oral 40 mg/kg daily, three weeks, mice gained weight and survived", "protocol": "(§1) Preliminary in vivo work was conducted to determine the bioavailability and toxicity of this agent in mice."}, "[4]": {"system": "primary acute myelogenous leukemia (AML) cells", "experiment": "Assay for antileukemic activity (Annexin V/7-AAD apoptosis analysis by flow cytometry)", "format": "cell-based", "conditions": "24 hours of culture", "protocol": "For apoptosis analysis, one million primary acute myelogenous leukemia (AML) cells were washed with cold PBS and resuspended in 200 microliters of Annexin binding buffer (10 mM HEPES/NaOH pH 7.4; 140 mM NaCl; 2.5 mM CaCl2). Annexin V-FITC (Pharmingen) and 0.25 mg/mL 7-AAD (7-aminoactinomycin D, Molecular Probes, CA) were added and the tubes were incubated at room temperature in the dark for 15 minutes. Cells were then diluted with 200 microliters of Annexin binding buffer and analyzed immediately by flow cytometry. Viable cells were identified as failing to label with Annexin V or 7-AAD. Cells beginning to die label with Annexin V, and as membrane integrity is lost, will also label with 7-AAD. […] Data are normalized to untreated control specimens. The data are in Table 1 for aminoparthenolide derivatives and Table 2 for the salts of some aminoparthenolides."}, "[5]": {"experiment": "Oral bioavailability in mice: plasma level by LC-MS", "format": "in vivo", "conditions": "mouse, 40 mg/kg oral, read-out: plasma level one hour after oral gavage", "protocol": "as §1"}, "[6]": {"system": "normal hematopoietic stem cells", "experiment": "Human-mouse xenograft: NOD/SCID engraftment of normal donor cells treated in vitro", "format": "in vivo", "conditions": "7.5 micromolar in vitro for 12-18 hours, bone marrow analysed after 6-8 weeks (CD45)", "protocol": "(§2) To assess the effect of parthenolide on primary human stem cell populations, experiments were conducted using transplantation into immune deficient NOD/SCID mice. […] For each experiment, cryopreserved mononuclear cell specimens from normal or AML donors were thawed, and treated in vitro with 7.5 micromolar parthenolide for 12-18 hours. Following culture, 5-10 million cells/animal were injected intravenously into sublethally irradiated (300 Rad) NOD/SCID mice. After 6-8 weeks, animals were sacrificed and bone marrow was analyzed for the presence of human cells using flow cytometry as previously described (Guzman et al., Proc Natl Acad Sci USA 2002; 99: 16220-162253). Human specific antibodies for CD45 were used to assess the level of total engraftment."}, "[7]": {"system": "breast cancer cell line hbl-100", "experiment": "Clonogenic assay", "format": "cell-based", "conditions": "hbl-100, 2 μm concentration (parthenolide: similar dosage ranges)"}, "[8]": {"system": "AML cells (AML stem cell compartment)", "experiment": "Human-mouse xenograft: NOD/SCID engraftment of AML cells treated in vitro", "format": "in vivo, human cells in NOD/SCID mice", "conditions": "7.5 micromolar in vitro for 12-18 hours, bone marrow analysed after 6-8 weeks (CD45)", "protocol": "as §2"}, "[9]": {"system": "breast cancer cell line mdl-231", "experiment": "Clonogenic assay", "format": "cell-based", "conditions": "mdl-231, 2 μm concentration (parthenolide: similar dosage ranges)"}},
  "note": "Read-outs that look alike come from different tables or passages of the source.",
  "data": [
    {"smiles": "C/C1=C\\CC[C@@]2(C)O[C@@H]2[C@H]2OC(=O)[C@H](CN(C)C)[C@@H]2CC1", "note": "[DMAPT, 11S,11,13-Dihydro,13-dimethylaminoparthenolide]", "values": [
      {"measurement": "reduction of cellular proliferation", "setting": "[1]", "result": 50, "unit": "%"},
      {"measurement": "inhibition of proliferation", "setting": "[2]", "result": "almost complete inhibition"},
      {"measurement": "NF-κB DNA binding", "setting": "NF-κB DNA binding; CWR22Rv1, 10 μM", "result": "substantial decreases"},
      {"measurement": "NF-κB DNA binding", "setting": "NF-κB DNA binding; HT-1376 and UMUC-3 cell lines, increasing concentrations", "result": "decreased NF-κB DNA binding in a dose-dependent manner"},
      {"measurement": "NF-κB DNA binding activity", "setting": "NF-κB DNA binding; lung cancer cell lines A-549, H-23, H-522, H-460, between 2 and 10 micromolar", "result": "substantially decreased"},
      {"measurement": "toxicity on daily oral treatment", "setting": "[3]", "result": "no overt toxicities"},
      {"measurement": "Antileukemic activity", "setting": "[4]; 5 μM", "result": "5 μM, 31%"},
      {"measurement": "Antileukemic activity", "setting": "[4]; 10 μM, normalized to untreated control", "result": "10 μM, 90%"},
      {"measurement": "Antileukemic activity", "setting": "[4]; 20 μM", "result": "20 μM, 95%"},
      {"measurement": "concentration at 1 h", "setting": "[5]; LC-MS, average of 5 mice", "result": "~2500", "unit": "ng/mL"},
      {"measurement": "concentration at 1 h", "setting": "[5]; conversion of the ng/mL value", "result": 8, "unit": "µM"},
      {"measurement": "level of engraftment of treated normal cells in NOD/SCID mice", "setting": "[6]", "result": "no significant effects"},
      {"measurement": "inhibition of proliferation", "setting": "[7]", "result": "almost complete inhibition"},
      {"measurement": "level of engraftment of treated AML cells in NOD/SCID mice", "setting": "[8]", "result": "strong reduction"},
      {"measurement": "inhibition of proliferation", "setting": "[9]", "result": "almost complete inhibition"}
    ]}
  ]
}
